Reference: patent US20100080786A1, “Phenyl or Pyridinyl Substituted Indazoles Derivatives” (priority 2008, published 2010)
pIC50: −log10 of the molar value.

Molecular target: T1, Human Glucocorticoid Receptor (GR) (Homo sapiens, UniProt P04150)
T1 construct: The full length GR was diluted to a final concentration of 3.3% (0.495 mg/ml) in assay buffer
T1 sequence (P04150 1-777): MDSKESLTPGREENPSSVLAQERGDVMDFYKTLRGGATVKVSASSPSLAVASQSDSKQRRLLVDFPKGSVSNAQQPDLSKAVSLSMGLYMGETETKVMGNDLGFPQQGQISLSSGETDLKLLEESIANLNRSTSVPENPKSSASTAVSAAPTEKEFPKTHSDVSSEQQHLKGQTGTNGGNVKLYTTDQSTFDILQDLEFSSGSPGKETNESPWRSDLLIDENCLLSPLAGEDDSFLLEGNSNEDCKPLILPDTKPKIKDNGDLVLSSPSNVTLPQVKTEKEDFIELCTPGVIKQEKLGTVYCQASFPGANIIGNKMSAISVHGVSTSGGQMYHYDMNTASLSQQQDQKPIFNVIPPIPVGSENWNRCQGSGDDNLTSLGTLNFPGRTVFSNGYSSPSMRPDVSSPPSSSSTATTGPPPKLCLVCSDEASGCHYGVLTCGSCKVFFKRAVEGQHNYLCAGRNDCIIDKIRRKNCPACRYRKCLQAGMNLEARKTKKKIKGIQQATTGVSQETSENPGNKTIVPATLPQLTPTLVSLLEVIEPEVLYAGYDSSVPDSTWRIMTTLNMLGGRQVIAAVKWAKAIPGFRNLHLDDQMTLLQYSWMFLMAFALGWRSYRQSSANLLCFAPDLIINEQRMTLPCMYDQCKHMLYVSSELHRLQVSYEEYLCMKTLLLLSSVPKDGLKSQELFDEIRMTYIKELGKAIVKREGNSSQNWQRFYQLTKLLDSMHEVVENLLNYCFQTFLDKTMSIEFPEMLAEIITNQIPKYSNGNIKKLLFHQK
Test: Human Glucocorticoid Receptor (GR) radioligand binding assay (3H-dexamethasone competition)
Details: full length GR; 7 nM 3H-dexamethasone; 2 h at room temperature
Experimental: Human Glucocorticoid Receptor (GR) Assay
The radioligand GR binding assay is based on a competition assay using ^3H-labeled Dexamethasone. Dexamethasone is known to bind in the ligand binding domain of GR and compete for binding with endogenous ligands like e.g. cortisol (Necela, 2003). In the GR radioligand binding assay, test compounds were serially diluted in semi-log steps (10 concentrations) with a final concentration of 10 μM. Test compounds (1 μL) and controls (1 μL) in 100% DMSO were added to 96 Greiner V-bottom polypropylene plates. 0% control was 6.7% DMSO (final concentration in assay) and 100% control was 6.7 μM Dexamethasone.
The full length GR was diluted to a final concentration of 3.3% (0.495 mg/ml) in assay buffer (20 mM Tris-HCl, 1 mM EDTA, 10% (w/v) Glycerol, 20 mM Sodium molybdate, pH 7.4). 45 μL of GR was added to each well and the plates were incubated for 15 min at room temperature.
^3H-dexamethasone solution was diluted to a concentration of 70 nM in assay buffer (7 nM final assay concentration) and 5 μL was added to each well. The samples were mixed for 5 min using a plate shaker at 700 rpm, before incubation for 2 h at room temperature.
50 μL ice-cold charcoal solution (pH 7.4:2% Charcoal, 0.2% Dextran T70 in 20 mM Tris-HCl, 1 mM EDTA and 20 mM Sodium molybdate) was added to each well and the samples were mixed on plate shaker for 5 minutes.
The plate was then centrifuged for 1.5 min at 1500 rpm, the samples (80 μL) were is transferred from each well to a filter plate (Millipore, 0.45 μm, MHVBN45) on a vacuum manifold and then collected into new plates (Greiner, 96 well white/transparent, 655095). The filter plate was washed once with 20 μl of water and then 100 μL of scintillation liquid was added to each well and mixed by incubation on plate shaker for 5 min. Radioactivity was measured in a 1450 Microbeta Trilux Reader (Wallac) counting cpm for 2 minutes per well. The data obtained from each replicate experiment were analysed using the software ActivityBase, version 5.4.3 (ID Business Solutions Ltd) and IC50 values were calculated. Ref: Necela, B M, Cidlowski, J A, Trends Pharmacol Sci, 24: 58, 2003

Structure (SMILES)	pIC50
C[C@H](NC(=O)C(C)(F)F)[C@H](Oc1ccc2c(cnn2-c2cccc(C(=O)N3CC[C@@H](O)C3)c2)c1)c1ccccc1 [Example 9, 2,2-Difluoro-N-[(1S,2R)-2-{[1-(3-{[(3R)-3-hydroxypyrrolidin-1-yl]carbonyl}phenyl)-1H-indazol-5-yl]oxy}-1-methyl-2-phenylethyl]propanamide]	8.25
COc1ccc([C@@H](Oc2ccc3c(cnn3-c3cccc(C(=O)NC4CCOC4)c3)c2)[C@H](C)NC(=O)C(C)(F)F)cn1 (stereo partly drawn) [Example 25, 3-(5-{[(1R,2S)-2-[(2,2-difluoropropanoyl)amino]-1-(6-methoxypyridin-3-yl)propyl]oxy}-1H-indazol-1-yl)-N-(tetrahydrofuran-3-yl)benzamide]	8.52
C[C@H](NC(=O)C(C)(F)F)[C@H](Oc1ccc2c(cnn2-c2cccc(C(=O)N3CCNC(=O)C3)c2)c1)c1ccccc1 [Example 12, 2,2-Difluoro-N-{(1S,2R)-1-methyl-2-[(1-{3-[(3-oxopiperazin-1-yl)carbonyl]phenyl}-1H-indazol-5-yl)oxy]-2-phenylethyl}propanamide]	8.60
COc1ccc([C@@H](Oc2ccc3c(cnn3-c3cccc(C(=O)NC4CCCC4)c3)c2)[C@H](C)NC(=O)C(C)(F)F)cn1 [Example 22, N-cyclopentyl-3-(5-{[(1R,2S)-2-[(2,2-difluoropropanoyl)amino]-1-(6-methoxypyridin-3-yl)propyl]oxy}-1H-indazol-1-yl)benzamide]	8.86
C[C@H](NC(=O)C(C)(F)F)[C@H](Oc1ccc2c(cnn2-c2cccc(C(=O)NCCN3CCCC3=O)c2)c1)c1ccccc1 [Example 13, 3-[5-({(1R,2S)-2-[(2,2-difluoropropanoyl)amino]-1-phenylpropyl}oxy)-1H-indazol-1-yl]-N-[2-(2-oxopyrrolidin-1-yl)ethyl]benzamide]	7.42
COc1ccc([C@@H](Oc2ccc3c(cnn3-c3cccc(C(=O)NC4CCCC4)c3)c2)[C@H](CO)NC(=O)C(C)(F)F)cn1 [Example 27]	7.87
C[C@H](NC(=O)C(C)(F)F)[C@H](Oc1ccc2c(cnn2-c2cccc(C(=O)NCCN3CCNC3=O)c2)c1)c1ccccc1 [Example 7, 3-[5-({(1R,2S)-2-[(2,2-difluoropropanoyl)amino]-1-phenylpropyl}oxy)-1H-indazol-1-yl]-N-[2-(2-oxoimidazolidin-1-yl)ethyl]benzamide]	7.77
COc1ccc([C@@H](Oc2ccc3c(cnn3-c3cccc(C(=O)Nc4cccnc4)c3)c2)[C@H](C)NC(=O)C(C)(F)F)cn1 [Example 23, 3-(5-{[(1R,2S)-2-[(2,2-difluoropropanoyl)amino]-1-(6-methoxypyridin-3-yl)propyl]oxy}-1H-indazol-1-yl)-N-(pyridin-3-yl)benzamide]	9.07
COc1ccc([C@@H](Oc2ccc3c(cnn3-c3cccc(C(=O)NC4CCS(=O)(=O)C4)c3)c2)[C@H](C)NC(=O)C(C)(F)F)cn1 (stereo partly drawn) [Example 24, 3-(5-{[(1R,2S)-2-[(2,2-difluoropropanoyl)amino]-1-(6-methoxypyridin-3-yl)propyl]oxy}-1H-indazol-1-yl)-N-(1,1-dioxidotetrahydrothiophen-3-yl)benzamide]	8.35
C[C@H](NC(=O)C(C)(F)F)[C@H](Oc1ccc2c(cnn2-c2cccc(C(=O)NCCN3C(=O)OC(C)(C)C3=O)c2)c1)c1ccccc1 [Example 14, 3-[5-({(1R,2S)-2-[(2,2-difluoropropanoyl)amino]-1-phenylpropyl}oxy)-1H-indazol-1-yl]-N-[2-(5,5-dimethyl-2,4-dioxo-1,3-oxazolidin-3-yl)ethyl]benzamide]	7.40
CCC(O)CNC(=O)c1cccc(-n2ncc3cc(O[C@H](c4ccc(OC)nc4)[C@H](C)NC(=O)C(C)(F)F)ccc32)c1 (stereo partly drawn) [Example 26, 3-(5-{[(1R,2S)-2-[(2,2-difluoropropanoyl)amino]-1-(6-methoxypyridin-3-yl)propyl]oxy}-1H-indazol-1-yl)-N-(2-hydroxybutyl)benzamide]	8.38
C[C@H](NC(=O)C(C)(F)F)[C@H](Oc1ccc2c(cnn2-c2cccc(C(=O)NCC(N)=O)c2)c1)c1ccccc1 [Example 4, N-(2-amino-2-oxoethyl)-3-[5-({(1R,2S)-2-[(2,2-difluoropropanoyl)amino]-1-phenylpropyl}oxy)-1H-indazol-1-yl]benzamide]	8.79
C[C@H](NC(=O)C(C)(F)F)[C@H](Oc1ccc2c(cnn2-c2cccc(C(=O)N[C@@H](C(N)=O)c3ccccc3)c2)c1)c1ccccc1 [Example 17, N-[(1R)-2-amino-2-oxo-1-phenylethyl]-3-[5-({(1R,2S)-2-[(2,2-difluoropropanoyl)amino]-1phenylpropyl}oxy)-1H-indazol-1-yl]benzamide]	8.45
C[C@H](NC(=O)C(C)(F)F)[C@H](Oc1ccc2c(cnn2-c2cccc(C(=O)N3CCC[C@@H]3CO)c2)c1)c1ccccc1 [Example 8, 2,2-Difluoro-N-[(1S,2R)-2-{[1-(3-{[(2R)-2-(hydroxymethyl)pyrrolidin-1-yl]carbonyl}phenyl)-1H-indazol-5-yl]oxy}-1-methyl-2-phenylethyl]propanamide]	8.16
CC(=O)NCCNC(=O)c1cccc(-n2ncc3cc(O[C@H](c4ccccc4)[C@H](C)NC(=O)C(C)(F)F)ccc32)c1 [Example 6, N-[2-(acetylamino)ethyl]-3-[5-({(1R,2S)-2-[(2,2-difluoropropanoyl)amino]-1-phenylpropyl}oxy)-1H-indazol-1-yl]benzamide]	8.30
C[C@H](NC(=O)C(N)=O)[C@H](Oc1ccc2c(cnn2-c2cccc(C(=O)N3CCC[C@@H]3C(N)=O)c2)c1)c1ccccc1 [Example 2, N-[(1S,2R)-2-{[1-(3-{[(2R)-2-carbamoylpyrrolidin-1-yl]carbonyl}phenyl)-1H-indazol-5-yl]oxy}-1-methyl-2-phenylethyl]ethanediamide]	7.70
C[C@H](NC(=O)C(C)(F)F)[C@H](Oc1ccc2c(cnn2-c2cccc(C(=O)N(C)CC(N)=O)c2)c1)c1ccccc1 [Example 18]	8.37
C[C@H](NC(=O)C(C)(F)F)[C@H](Oc1ccc2c(cnn2-c2cccc(C(=O)NCCO)c2)c1)c1ccccc1 [Example 3, 3-[5-({(1R,2S)-2-[(2,2-difluoropropanoyl)amino]-1-phenylpropyl}oxy)-1H-indazol-1-yl]-N-(2-hydroxyethyl)benzamide]	8.77
C[C@H](NC(=O)C1(C#N)CC1)[C@H](Oc1ccc2c(cnn2-c2cccc(C(=O)N3CCC[C@@H]3C(N)=O)c2)c1)c1ccccc1 [Example 21, 1-{[3-(5-{[(1R,2S)-2-{-[1(1-cyanocyclopropyl)carbonyl]amino}-1-phenylpropyl]oxy}-1H-indazol-1-yl)phenyl]carbonyl}-D-prolinamide]	8.54
C[C@H](NC(=O)c1cccc(-n2ncc3cc(O[C@H](c4ccccc4)[C@H](C)NC(=O)C(C)(F)F)ccc32)c1)C(N)=O [Example 5, N-[(1S)-2-amino-1-methyl-2-oxoethyl]-3-[5-({(1R,2S)-2-[(2,2-difluoropropanoyl)amino]-1-phenylpropyl}oxy)-1H-indazol-1-yl]benzamide]	8.71
COc1ccc([C@@H](Oc2ccc3c(cnn3-c3cccc(C(=O)NCc4cccnc4)c3)c2)[C@H](C)NC(=O)C(C)(F)F)cn1 [Example 28, 3-(5-{[(1R,2S)-2-[(2,2-difluoropropanoyl)amino]-1-(6-methoxypyridin-3-yl)propyl]oxy}-1H-indazol-1-yl)-N-(pyridin-3-ylmethyl)benzamide]	8.86
